Common to all, as to type: cell-based, human
Test [1] deals with pancreas and kidney cancer cells. Kind of test: Apoptosis detection, Annexin V/PI flow cytometry, pancreas and kidney cancer cells. As for the experimental part:
After incubation with 2-indolinone compounds (IC50 μM concentration; 48 and/or 72 hours), cells are washed twice with PBS and the cell pellet is suspended in Annexin V binding buffer. After this incubation, cells are incubated with FITC-conjugated Annexin V and propidium iodine staining solution for 15 minutes in the dark and at room temperature. Then, cells are analyzed by flow cytometry (Beckman coulter, Navios) (Wlodkowic, D., Skommer, J, Darzynkiewicz, Z. 2009. Flow cytometry-based apoptosis detection, Methods Mol Biol., 559, 1-14).
Whether the 2-indolinone derivatives (5) with the highest selectivity index and general TKI activity stimulated apoptosis and necrosis is determined by Annexin V and propidium iodine staining in pancreas and kidney cancer cells. Annexin V/PI flow cytometry apoptosis values of the tested compounds Y1, Y2, Y3, Y4, Y8 and Y14 are found to be 40% and above in correlation with MTT results. The apoptosis rates of the control groups and the substances are analyzed by t test in GraphPad version 9.0.
On the technique in general: Flow cytometry measures light scatter and fluorescence of single cells or particles in a stream.

For another test, the system named is HUVEC cells. Kind of test: MTT cytotoxicity, healthy cells HUVEC. Conditions: for Selectivite Index (SI), HUVEC (Table 1): HUVEC vs breast or kidney cancer cells; for Selectivite Index (SI), HUVEC (Table 1) / Selectivite Index, HUVEC (Table 2): cancer line not given; for Selectivite Index, HUVEC (Table 2): HUVEC vs colon or pancreas cancer cells; for IC50: MTT. Put shortly: (§1)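 Following seeding and next-day dosing at 0.1, 1, 5 and 10 μM, plates incubate 48 and/or 72 h. MTT is then applied for 4 h and dissolved crystals measured at 570 nm (630 nm reference); cell-free compound+MTT wells control for interference, and IC50 is calculated per compound.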

The subject of test [2] is MIAPaCa-2 cells. Nature of the test: MTT cytotoxicity, pancreas cancer cells MIAPaCa-2. Conditions: for selectivity index: MCF-10F/Beas2b vs MIAPaCa-2. The essentials: (§2)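 Cells were seeded at 5000 per well and treated next day with compound at 0.1, 1, 5 and 10 μM (final) for 48 and/or 72 h, with matched DMSO controls. MTT was added for 4 h and formazan was dissolved in DMSO and read at 570/630 nm. % viability against control gave IC50 from dose-response curves.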

The subject of the next test is MDA-MB-231 cells. Kind of test: MTT cytotoxicity, breast cancer cells MDA-MB-231. The note with it: MTT, no * mark (incubation time not given). Put shortly:
as §1

A further test deals with HCT-116 cells. Kind of test: MTT cytotoxicity, colon cancer cells HCT-116. Put shortly: as §2
The next test has as its system HT-29 cells. Kind of test: MTT cytotoxicity, colon cancer cells HT-29. The note with it: MTT. Put shortly:
as §2

Test [3] has as its system MIAPaCa-2 cells. Nature of the test: Apoptosis/necrosis detection, Annexin V/PI flow cytometry, MiaPaca-2. Conditions: for necrosis compared to control: MiaPaca-2; for apoptosis (early and late) compared to control: MiaPaca-2, IC50 values.
The mark [4] stands for this setting: no * mark (incubation time not specified).
Setting [5] is: MTT, no * mark (incubation time not specified).
Setting [6] is: read-out: IC50, MDA-MB-231 (breast).

Several values for one entry are separate records, joined by “and”; a condition that tells them apart may be missing. Equal values may be shown once. Read-outs that look alike come from different tables or passages of the source.

Broadly, the IC50 is the point on the concentration scale where inhibition reaches its midpoint. As for `Cc1ccc2c(c1)/C(=C/c1c[nH]c3ccccc13)C(=O)N2Cc1cccc(F)c1` [Y8], the “Annexin V/PI flow cytometry apoptosis values” in test [1] is on record as ≥ 40%. In addition, in the test with HUVEC cells, the “Selectivite Index (SI), HUVEC (Table 1)” value was 2.36. The “Selectivite Index, HUVEC (Table 2)” value in the test with HUVEC cells is given as 4.07. For the same compound, the IC50 is 2.2 µM in the test on HUVEC cells (setting [4]); 0.54 µM with MIAPaCa-2 cells [2] (setting [5]); 7.36 µM with MDA-MB-231 cells (setting [6]); 1.21 µM in the test on HCT-116 cells (setting [4]); 5 µM with HT-29 cells (setting [4]). Further, the selectivity index with MIAPaCa-2 cells [2] is reported as > 19. Further, the “necrosis compared to control” value in the test with MIAPaCa-2 cells [3] is on record as “did not cause necrosis”. In addition, in the test with MIAPaCa-2 cells [3], the “apoptosis (early and late) compared to control” value (shortened to “apoptosis … compared to control”) is “increase in apoptosis at IC50 values was statistically significant”.
Consider `Cc1ccc2c(c1)/C(=C/c1c[nH]c3ccccc13)C(=O)N2Cc1ccccc1` [Y3], for which the “Annexin V/PI flow cytometry apoptosis values” in test [1] is on record as ≥ 40%. Besides, in the test with HUVEC cells, the “Selectivite Index (SI), HUVEC (Table 1)” value is 1.89. In the test with HUVEC cells, the “Selectivite Index, HUVEC (Table 2)” value is on record as 12.69. In addition, the IC50 in the test with HUVEC cells (Homo sapiens, HUVEC, no * mark (incubation time not given)) came to 1.65 µM; in the test on MIAPaCa-2 cells [2] (Homo sapiens, MIA PaCa-2, MTT, no * mark (incubation time not given)), 0.13 µM; in the test on MDA-MB-231 cells (Homo sapiens, MDA-MB-231, read-out: IC50, MDA-MB-231 (breast)), 3.57 µM; with HCT-116 cells (Homo sapiens, HCT-116, no * mark (incubation time not given)) it was 2.05 µM; in the test with HT-29 cells (Homo sapiens, HT-29, no * mark (incubation time not given)) it was 2.43 µM. In the test on MIAPaCa-2 cells [2], the selectivity index was > 77. The “necrosis compared to control” value with MIAPaCa-2 cells [3] is given as “did not cause necrosis”. Moreover, in the test on MIAPaCa-2 cells [3], the “apoptosis … compared to control” value was “increase in apoptosis at IC50 values was statistically significant”.
Consider `O=C1/C(=C\c2c[nH]c3ccccc23)c2cc(OC(F)(F)F)ccc2N1Cc1ccccc1` [Y4], for which the “Annexin V/PI flow cytometry apoptosis values” in test [1] is on record as ≥ 40%. The “Selectivite Index, HUVEC (Table 2)” value in the test on HUVEC cells is 4.28 and 4.60. Also, the IC50 is 2.44 µM in the test with HUVEC cells (setting [4]); 0.53 µM in the test with MIAPaCa-2 cells [2] (setting [5]); > 10 µM with MDA-MB-231 cells (setting [6]); 0.57 µM in the test with HCT-116 cells (setting [4]); 1.75 µM with HT-29 cells (setting [4]). Further, the selectivity index in the test on MIAPaCa-2 cells [2] is given as > 19. Also, the “necrosis compared to control” value with MIAPaCa-2 cells [3] is on record as “did not cause necrosis”. The “apoptosis … compared to control” value with MIAPaCa-2 cells [3] is listed as “increase in apoptosis at IC50 values was statistically significant”.
Regarding `O=C1/C(=C\c2c[nH]c3ccccc23)c2ccccc2N1Cc1ccccc1` [Y1], the “Annexin V/PI flow cytometry apoptosis values” in test [1] is listed as ≥ 40%. For the same compound, the “Selectivite Index, HUVEC (Table 2)” value in the test on HUVEC cells turned out to be 6.60. In addition, the IC50 in the test on HUVEC cells (setting [4]) was 2.84 µM; in the test with MIAPaCa-2 cells [2] (setting [5]), 0.43 µM; in the test with MDA-MB-231 cells (setting [6]), 9.82 µM; with HCT-116 cells (setting [4]) it was 2.64 µM; in the test with HT-29 cells (setting [4]) it was 1.81 µM. Besides, the selectivity index with MIAPaCa-2 cells [2] is recorded as > 23. In the test on MIAPaCa-2 cells [3], the “necrosis compared to control” value is listed as “did not cause necrosis”. Further, in the test on MIAPaCa-2 cells [3], the “apoptosis … compared to control” value is on record as “increase in apoptosis at IC50 values was statistically significant”.

Values taken from patent publication US20260335282A1, “NOVEL 3-ARYLIDENE-2-INDOLINONE DERIVATIVES FOR THERAPEUTIC USE” (ISTANBUL UNIVERSITESI REKTORLUGU, priority 2022, published 2026).
